According to US20250361219A1, “SYSTEMS AND METHODS FOR SEPARATION OF CHEMICAL SPECIES, SUCH AS CANNABINOIDS, USING MULTIPLE LIQUID PHASES” (priority 2022, published 2025):
Where two headings read alike, the source gives them in different places.

Legend:
[1] = Batch extraction of rac-propranolol with dibutyl L-(+)-tartrate / boric acid, dichloromethane/water; format: physicochemical; conditions: for distribution coefficient: dichloromethane with dibutyl-L-tartrate / water with boric acid
Procedure: One mobile phase was used—a 54/46 v/v methanol/water solution containing 110 mM sodium acetate adjusted to a pH of 6 using glacial acetic acid, 215 mM boric acid, and 285 mM dibutyl L-(+)-tartrate. The flow rate was 0.23 mL/min. The column was heated to 25° C. and the detection was monitored at a wavelength of 275 nm. Samples were diluted 20× in 54/46 v/v methanol/water solution containing 110 mM sodium acetate buffered to a pH of 6 with glacial acetic acid and the injection volume was 10 μL.
Batch extraction experiments were performed as follows. 2 mL of 1 mg/mL rac-Propranolol in water containing 152.1 mM boric acid was mixed with 2 mL of 152.1 mM dibutyl L-(+)-tartrate in dichloromethane. The solution was vigorously shaken for approximately 2 minutes and allowed to fully settle. 20 μL of each phase were diluted with 380 μL of 110 mM sodium acetate in a 54/46 methanol/water solution buffered to a pH of 6 using glacial acetic acid and the solute concentrations were determined by HPLC.

[2] = 1,2-Dichloroethane/water (literature), 45x molar excess dibutyl-L-tartrate and boric acid; listed as R/S-PRP; cited from earlier work
[3] = Current platform (10/5/5 DCM/methanol/water ratio)
Procedure: Batch extraction experiments were performed as follows. 1 mg of each solute was added to 2 mL of dichloromethane, 1 mL of water, and 1 mL of methanol. The solution was vigorously shaken for around 2 minutes and allowed to fully settle. 100 μL of each phase were diluted with 900 μL of methanol and the solute concentrations were determined by HPLC.

[4] = Literature (10/6/4 DCM/methanol/water ratio); cited from earlier work
[5] = Partition coefficients of delta-9- and delta-8-tetrahydrocannabinol in liquid mixtures (Examples 1-9); format: physicochemical
Procedure: The cannabinoid sample contained both delta-9-tetrahydrocannabinol with delta-8-tetrahydrocannabinol. The liquid mixtures included an organic phase as the first liquid phase and a water soluble phase as the second liquid phase. The organic phase and the water soluble phase were in 1:1 volume ratio for all analyses. Various hydrocarbons were evaluated as the organic phase. These hydrocarbons included hexane, heptane, cyclohexane, pentane, 1-hexene, toluene, benzene, 1-octadecene, and dodecane. Various amide based solvents were evaluated as the water soluble phase. These amide based solvents included formamide (F), dimethyl formamide (DMF), methyl formamide (MF), dibutyl formamide (DBF).
Example 9. A mixture of formamide (F) and dimethyl formamide (DMF) and dibutyl formamide (DBF) at a volume ratio of 1:3:1 (20% F and 60% DMF and 20% DBF) was used as the water soluble phase. Hexane was used as the organic phase. […] The partition coefficients for each component (e.g., delta-9-tetrahydrocannabinol, delta-8-tetrahydrocannabinol) in the liquid mixture were determined by calculating a ratio of the concentration of the component in the water soluble phase over concentration of the component in the organic phase.

CC(C)NC[C@@H](O)COc1cccc2ccccc12 [R-PRP, R-propranolol]
distribution coefficient [1]: 0.12

CC(C)NCC(O)COc1cccc2ccccc12 (centres unmarked) [R/S-propranolol]
Selectivity between enantiomers ([1]; Dichloromethane/water (experiment), 45x molar excess dibutyl-L-tartrate and boric acid): 2.58 ± 0.07 | Selectivity between enantiomers [2]: 2.54±0.13

CC(C)NCC(O)COc1cccc2ccccc12 (centres unmarked) [S-PRP]
distribution coefficient [1]: 0.30

COc1cc(C=O)cc(OC)c1O [Syringaldehyde, syringaldehyde]
αx/pHBA (selectivity) [3]: 25.5 | αx/pHBA (selectivity) [4]: 17.8

CCCCCc1cc(O)c2c(c1)OC(C)(C)[C@@H]1CCC(C)=C[C@@H]21 [delta-9-tetrahydrocannabinol]
Kd9,THC/Kd8,THC ([5]; Example 1: F:DMF (9:16) / Hexane): 1.47 | Kd9,THC/Kd8,THC ([5]; Example 2: F:DMF (9:16) / Heptane): 1.45 | Kd9,THC/Kd8,THC ([5]; Example 3: F:DMF (9:16) / Cyclohexane): 1.48 | Kd9,THC/Kd8,THC ([5]; Example 4: F:DMF (9:16) / Pentane): 1.36 | Kd9,THC/Kd8,THC ([5]; Example 5: F:DMF (9:16) / 1-Hexene): 1.37 | Kd9,THC/Kd8,THC ([5]; Example 6: F:DMF (1:1) / Dodecane): 1.39 | Kd9,THC/Kd8,THC ([5]; Example 7: F:MF (1:1) / Hexane): 1.20 | Kd9,THC/Kd8,THC ([5]; Example 8: F:MF (2:3) / Hexane): 1.23 | Kd9,THC/Kd8,THC ([5]; Example 9: F:DMF:DBF (1:3:1) / Hexane): 1.39

O=C(O)c1ccc(O)cc1 [pHBA, para-hydroxybenzoic acid]
αx/pHBA (selectivity) [3]: 1.00 | αx/pHBA (selectivity) [4]: 1.00
